Data as given in patent US8642788B2, “Activators of executioner procaspases 3, 6 and 7” (The Regents of the University of California, priority 2008, dated 2014).

How the values were obtained:
Type in all cases: biochemical
procaspase-3 = target: T1, procaspase-3 (Homo sapiens, UniProt P42574); test: Executioner procaspase-3 activation assay (Ac-DEVD-AFC fluorogenic substrate); conditions: incubation with compound for 5 h at 37° C.; 100 nM procaspase; read-out: Procaspase Activation 3
T1 construct: His6 (C); made in house; host or cells: E. coli BL21(DE3)RP, pET-23b
T1 sequence (P42574 1-277): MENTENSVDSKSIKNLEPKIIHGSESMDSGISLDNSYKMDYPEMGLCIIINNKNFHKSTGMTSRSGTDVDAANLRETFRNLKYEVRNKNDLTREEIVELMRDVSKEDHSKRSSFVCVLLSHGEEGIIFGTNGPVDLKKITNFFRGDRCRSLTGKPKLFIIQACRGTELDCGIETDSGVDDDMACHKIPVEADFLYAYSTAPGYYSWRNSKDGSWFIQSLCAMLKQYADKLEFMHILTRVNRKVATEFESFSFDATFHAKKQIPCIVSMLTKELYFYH
Summary of the method: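 Procaspase-3 at 100 nM was incubated with activating compounds (100 nM to 100 uM) in 50 mM HEPES pH 7.4, 50 mM KCl, 1 mM DTT and 0.01% Triton-X100, the detergent limiting aggregation artefacts. Protein, substrate and inhibitor were kept as frozen aliquots and thawed just before use.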

procaspase-7 = target: T2, procaspase-7 (Homo sapiens, UniProt P55210); test: Executioner procaspase-7 activation assay (Ac-DEVD-AFC fluorogenic substrate); conditions: incubation with compound for 5 h at 37° C.; 100 nM procaspase
T2 construct: His6 (C); made in house; host or cells: E. coli BL21(DE3)RP, pET-21b
T2 sequence (P55210 1-303): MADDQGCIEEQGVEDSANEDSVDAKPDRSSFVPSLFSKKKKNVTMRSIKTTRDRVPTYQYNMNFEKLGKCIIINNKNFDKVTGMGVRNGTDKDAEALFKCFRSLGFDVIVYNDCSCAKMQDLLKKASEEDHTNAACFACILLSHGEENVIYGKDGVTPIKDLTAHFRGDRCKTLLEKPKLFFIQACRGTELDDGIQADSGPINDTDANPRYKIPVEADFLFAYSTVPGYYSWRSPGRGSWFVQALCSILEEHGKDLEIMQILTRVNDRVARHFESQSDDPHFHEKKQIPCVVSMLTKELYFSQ
Summary of the method: (§1)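 Procaspase at 100 nM incubated with compound (100 nM–100 μM) in 50 mM HEPES pH 7.4, KCl, DTT, 0.01% Triton X-100, 3% DMSO, 37 °C for 5 h; then 25 μM Ac-DEVD-AFC (procaspase-7) or Ac-VEID-AFC (procaspase-6), kinetic fluorescence 30 min (ex 365/em 495); EC50 reported.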

procaspase-6 = target: T3, procaspase-6 (Homo sapiens, UniProt P55212); test: Executioner procaspase-6 activation assay (Ac-VEID-AFC fluorogenic substrate); conditions: incubation with compound for 5 h at 37° C.; 100 nM procaspase
T3 sequence (P55212 1-293): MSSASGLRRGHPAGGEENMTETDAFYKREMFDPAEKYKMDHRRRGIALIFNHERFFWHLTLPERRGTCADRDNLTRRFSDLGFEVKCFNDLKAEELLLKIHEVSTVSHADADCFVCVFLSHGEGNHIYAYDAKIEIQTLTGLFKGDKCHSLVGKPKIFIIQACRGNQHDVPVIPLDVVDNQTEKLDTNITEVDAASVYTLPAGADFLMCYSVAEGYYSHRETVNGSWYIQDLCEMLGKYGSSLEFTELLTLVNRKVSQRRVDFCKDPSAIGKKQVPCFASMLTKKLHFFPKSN
Summary of the method: as §1

Structure (SMILES) | EC50 (procaspase-3) [µM] | EC50 (procaspase-7) [µM] | EC50 (procaspase-6) [µM]
N#Cc1ccc(-c2cccc(NC(=O)c3cc4cccc(O)c4oc3=O)c2)cc1F [compound 143, 8-Hydroxy-2-oxo-2H-chromene-3-carboxylic acid (4′-cyano-3′-fluoro-biphenyl-3-yl)-amide] | > 100 | > 100 | > 100
O=C(Nc1cccc(-c2ccc(Oc3ccccc3)cc2)c1)c1cc2cccc(O)c2oc1=O [compound 59, 8-Hydroxy-2-oxo-2H-chromene-3-carboxylic acid (4′-phenoxy-biphenyl-3-yl)-amide] | > 100 | > 100 | > 100
O=C(Nc1cccc(-c2ccc3c(c2)OCO3)c1)c1cc2cccc(OC(F)(F)F)c2oc1=O [compound 64, 8-Trifluoromethoxy-2-oxo-2H-chromene-3-carboxylic acid (3-Benzo[1,3]dioxol-5-yl-phenyl)-amide] | > 100 | > 100 | > 100
COc1ccc(OC)c(-c2cccc(NC(=O)c3cc4cccc(O)c4oc3=O)c2)c1 [compound 56, 8-Hydroxy-2-oxo-2H-chromene-3-carboxylic acid (2′,5′-dimethoxy-biphenyl-3-yl)-amide] | > 100 | > 100 | > 100

Second part, the compound after the results:

EC50 (procaspase-3) [µM] | EC50 (procaspase-7) [µM] | EC50 (procaspase-6) [µM] | Structure (SMILES)
> 100 | 10 to 50 | > 100 | COc1ncccc1-c1cccc(NC(=O)c2cc3cccc(O)c3oc2=O)c1 [compound 141, 8-Hydroxy-2-oxo-2H-chromene-3-carboxylic acid [3-(2-methoxy-pyridin-3-yl)-phenyl]-amide]
> 100 | > 100 | > 100 | COc1cccc2cc(C(=O)Nc3cccc(-c4ccc5c(c4)OCCO5)c3)c(=O)oc12 [compound 87, 8-Methoxy-2-oxo-2H-chromene-3-carboxylic acid [3-(2,3-dihydro-benzo[1,4]dioxin-6-yl)-phenyl]-amide]
0.5 to 10 | > 100 | > 100 | O=C(Nc1cccc(-c2ccc3occc(=O)c3c2)c1)c1cc2cccc(O)c2oc1=O [compound 161, 8-Hydroxy-2-oxo-2H-chromene-3-carboxylic acid [3-(4-oxo-4H-chromen-6-yl)-phenyl]-amide]
> 100 | > 100 | > 100 | COc1cccc2cc(C(=O)Nc3cccc(-c4ccn[nH]4)c3)c(=O)oc12 [compound 156, 8-Methoxy-2-oxo-2H-chromene-3-carboxylic acid [3-(2H-pyrazol-3-yl)-phenyl]-amide]
> 100 | > 100 | > 100 | COc1cccc2cc(C(=O)Nc3cccc(-c4ccc(N(C)C)nc4)c3)c(=O)oc12 [compound 138, 8-Methoxy-2-oxo-2H-chromene-3-carboxylic acid [3-(6-dimethylamino-pyridin-3-yl)-phenyl]-amide]
